Assay results from ChEMBL document CHEMBL5344418, “Recent developments in antimalarial activities of 4-aminoquinoline derivatives” (Eur J Med Chem, 2023).

Experiments:
Plasmodium falciparum [1] = assay: Antiplasmodial activity against chloroquine-sensitive Plasmodium falciparum NF54 by lactate dehydrogenase assay; format: functional, organism-based
[2] = Cytotoxicity against Chinese hamster CHO cells assessed as reduction in cell viability by MTT assay; format: toxicity, cell-based; details: Chinese hamster (Cricetulus griseus)
[3] = Cytotoxicity against African green monkey Vero cells assessed as reduction in cell viability incubated for 24 hrs by MTT assay; format: toxicity, cell-based; details: African green monkey (Chlorocebus sabaeus)
Plasmodium falciparum [4] = assay: Antiplasmodial activity against Plasmodium falciparum W2 assessed as reduction in plasmodial growth after 48 hrs by fluorescence based analysis; format: functional, organism-based; details: W2, 48 h
Plasmodium falciparum [5] = assay: Antiplasmodial activity against Plasmodium falciparum K1 assessed as growth inhibition measured after 72 hrs by SYBR green dye based assay; format: functional, organism-based; details: K1, 72 h
Plasmodium falciparum [6] = assay: Antiplasmodial activity against Plasmodium falciparum 3D7 assessed as growth inhibition measured after 72 hrs by SYBR green dye based assay; format: functional, organism-based; details: 3D7, 72 h

| Structure (SMILES) | IC50 at 24 h [3] [µM] | IC50 (Plasmodium falciparum [4]) [µM] | IC50 (Plasmodium falciparum [5]) [µM] | IC50 (Plasmodium falciparum [6]) [µM] | further results |
| --- | --- | --- | --- | --- | --- |
| Cc1ccc(/C=C/C(=O)c2ccc(S(=O)(=O)NCCNc3cncc4cc(Cl)ccc34)cc2)cc1 | – | – | – | – | IC50 (Plasmodium falciparum [1]): 0.39 µM; IC50 [2]: 24.9 µM |
| CCN(CC)c1ccc2c(c1)C(=O)N(CC(=O)NCCCCCCNc1ccnc3cc(Cl)ccc13)C2=O | > 187 | 1.22 | – | – | – |
| CC(CN1CCN(c2ccccc2)CC1)Nc1ccnc2cc(Cl)ccc12 (stereo unspecified) | – | – | 0.784 | 0.538 | – |
| O=C(CN1C(=O)c2ccc(N3CCN(CCO)CC3)cc2C1=O)NCCCCNc1ccnc2cc(Cl)ccc12 | > 177 | 0.86 | – | – | – |
| O=C(CCCN1C(=O)c2ccccc2C1=O)NCCCCNc1ccnc2cc(Cl)ccc12 | > 215 | 0.84 | – | – | – |
| CCN1CCN(CC(Cc2ccccc2)Nc2ccnc3cc(Cl)ccc23)CC1 (stereo unspecified) | – | – | 0.0708 | 0.428 | – |
| Clc1ccc2c(NCCN3CCN(Cc4ccc5c(c4)OCO5)CC3)ccnc2c1 | – | – | 0.0465 | 0.521 | – |
| CSCCC(CN1CCN(Cc2ccccc2)CC1)Nc1ccnc2cc(Cl)ccc12 (stereo unspecified) | – | – | > 5 | 3.1 | – |
| CCN1CCN(CC(CC(C)C)Nc2ccnc3cc(Cl)ccc23)CC1 (stereo unspecified) | – | – | 0.0978 | 0.057 | – |
| O=C(CCN1C(=O)c2ccc(F)cc2C1=O)NCCCCNc1ccnc2cc(Cl)ccc12 | 110 | 0.22 | – | – | – |
| CCN1CCN(CC(C)Nc2ccnc3cc(Cl)ccc23)CC1 (stereo unspecified) | – | – | 0.362 | 0.126 | – |
| CCOC(=O)N1CCN(CCNc2ccnc3cc(Cl)ccc23)CC1 | – | – | 0.162 | 0.899 | – |
| O=C(CN1C(=O)c2ccc(F)cc2C1=O)NCCNc1cccc2cc(Cl)ccc12 | > 235 | 1.99 | – | – | – |
| CCN1CCN(CC(CC(C)C)Nc2ccnc3cc(C(F)(F)F)ccc23)CC1 (stereo unspecified) | – | – | 0.798 | 0.0245 | – |
| O=C(CN1C(=O)c2ccc(F)cc2C1=O)NCCCCCCNc1ccnc2cc(Cl)ccc12 | > 207 | 1.49 | – | – | – |
| O=C(CN1C(=O)c2ccc(N3CCOCC3)cc2C1=O)NCCNc1ccnc2cc(Cl)ccc12 | > 203 | 3.21 | – | – | – |
| O=C(CN1C(=O)c2ccc(F)cc2C1=O)NCCCCNc1ccnc2cc(Cl)ccc12 | > 220 | 1.05 | – | – | – |
| O=C(CCN1C(=O)c2ccccc2C1=O)NCCCCCCNc1ccnc2cc(Cl)ccc12 | 87.5 | 0.29 | – | – | – |
| O=C(CCN1C(=O)c2ccc(N3CCN(CCO)CC3)cc2C1=O)NCCCCNc1ccnc2cc(Cl)ccc12 | 169 | 0.14 | – | – | – |

| Structure (SMILES) | IC50 at 24 h [3] [µM] | IC50 (Plasmodium falciparum [4]) [µM] | IC50 (Plasmodium falciparum [5]) [µM] | IC50 (Plasmodium falciparum [6]) [µM] | further results |
| --- | --- | --- | --- | --- | --- |
| O=C(c1ccco1)N1CCN(CCNc2ccnc3cc(Cl)ccc23)CC1 | – | – | 4.23 | 0.993 | – |
| O=C(CCN1C(=O)c2ccc(N3CCOCC3)cc2C1=O)NCCNc1ccnc2cc(Cl)ccc12 | 26.5 | 0.13 | – | – | – |
| Clc1ccc2c(NC(Cc3ccccc3)CN3CCN(c4ccccc4)CC3)ccnc2c1 (stereo unspecified) | – | – | 1.1 | > 1 | – |
| O=C(CN1C(=O)c2ccc(N3CCOCC3)cc2C1=O)NCCCCNc1ccnc2cc(Cl)ccc12 | > 192 | 1.28 | – | – | – |
| CCC(C)C(CN1CCN(CC)CC1)Nc1ccnc2cc(Cl)ccc12 (stereo unspecified) | – | – | 0.502 | 0.114 | – |
| O=C(CCCN1C(=O)c2ccccc2C1=O)NCCCCCCCCNc1ccnc2cc(Cl)ccc12 | 102 | 0.58 | – | – | – |
| CCN(CC)c1ccc2c(c1)C(=O)N(CC(=O)NCCCCNc1ccnc3cc(Cl)ccc13)C2=O | 46.9 | 1.17 | – | – | – |
| O=C(CN1C(=O)c2ccc(N3CCOCC3)cc2C1=O)NCCCCCCNc1ccnc2cc(Cl)ccc12 | 20.2 | 1.78 | – | – | – |
| Clc1ccc2c(NC(CN3CCN(Cc4ccccc4)CC3)n3ccc4ccccc43)ccnc2c1 (stereo unspecified) | – | – | 0.529 | 0.596 | – |
| O=C(CN1C(=O)c2ccccc2C1=O)NCCCCNc1ccnc2cc(Cl)ccc12 | > 229 | 3.66 | – | – | – |
| O=C(CN1C(=O)c2ccc(N3CCN(CCO)CC3)cc2C1=O)NCCNc1ccnc2cc(Cl)ccc12 | > 186 | 1.04 | – | – | – |
| CC(CN1CCN(Cc2ccccc2)CC1)Nc1ccnc2cc(Cl)ccc12 (stereo unspecified) | – | – | 0.084 | 0.405 | – |
| CCOC(=O)N1CCN(CC(CC(C)C)Nc2ccnc3cc(Cl)ccc23)CC1 (stereo unspecified) | – | – | 0.412 | 0.857 | – |
| CC(C)CC(CN1CCN(Cc2ccc3c(c2)OCO3)CC1)Nc1ccnc2cc(C(F)(F)F)ccc12 (stereo unspecified) | – | – | 0.0465 | 0.0226 | – |
| O=C(CCCN1C(=O)c2ccccc2C1=O)NCCNc1ccnc2cc(Cl)ccc12 | > 229 | 0.28 | – | – | – |
| O=C(CCN1C(=O)c2ccccc2C1=O)NCCCCNc1ccnc2cc(Cl)ccc12 | > 222 | 0.41 | – | – | – |
| CC(CN1CCN(Cc2ccc3c(c2)OCO3)CC1)Nc1ccnc2cc(Cl)ccc12 (stereo unspecified) | – | – | 0.0714 | 0.108 | – |
| O=C(CN1C(=O)c2ccc(N3CCN(CCO)CC3)cc2C1=O)NCCCCCCNc1ccnc2cc(Cl)ccc12 | > 169 | 0.46 | – | – | – |
| CCN1CCN(CC(CCSC)Nc2ccnc3cc(Cl)ccc23)CC1 (stereo unspecified) | – | – | > 5 | 2.66 | – |
